Experimental data as given in BindingDB's records for doi:10.1016/s0960-894x(99)00488-6 (Smithkline Beecham Pharmaceuticals, 1999).

What follows are compounds tested against Tyrosine--tRNA ligase (Staphylococcus aureus) (assay: Compound was tested for inhibition of Staphylococcus aureus tyrosyl tRNA Synthetase).

Point of comparison: `N[C@@H](Cc1ccc(O)cc1)C(=O)NC(C(=O)O)c1ccccc1O` (stereo partly drawn) [[(S)-2-Amino-3-(4-hydroxy-phenyl)-propionylamino]-(2-hydroxy-phenyl)-acetic acid], IC50 800 nM. Against it:
- N[C@@H](Cc1ccc(O)cc1)C(=O)N[C@H](C(=O)O)c1ccc(O)c(O)c1 [(S)-[(S)-2-Amino-3-(4-hydroxy-phenyl)-propionylamino]-(3,4-dihydroxy-phenyl)-acetic acid] — 14-fold higher, 11000 nM
- N[C@@H](Cc1ccc(O)cc1)C(=O)N[C@H](C(=O)O)c1ccccc1 [(S)-[(S)-2-Amino-3-(4-hydroxy-phenyl)-propionylamino]-phenyl-acetic acid] — within 1.5-fold, 900 nM
- N[C@@H](Cc1ccc(O)cc1)C(=O)NC(C(=O)O)c1ccccc1F (stereo partly drawn) [[(S)-2-Amino-3-(4-hydroxy-phenyl)-propionylamino]-(2-fluoro-phenyl)-acetic acid] — 9.8-fold higher, 7800 nM
- COC(=O)C(NC(=O)[C@@H](N)Cc1ccc(O)cc1)c1ccccc1O (stereo partly drawn) [[(S)-2-Amino-3-(4-hydroxy-phenyl)-propionylamino]-(2-hydroxy-phenyl)-acetic acid methyl ester] — 1.5-fold higher, 1200 nM
- N[C@@H](Cc1ccc(O)cc1)C(=O)NC(C(=O)O)c1cccc(O)c1 (stereo partly drawn) [[(S)-2-Amino-3-(4-hydroxy-phenyl)-propionylamino]-(3-hydroxy-phenyl)-acetic acid] — 4.2-fold higher, 3400 nM
